A word on the MIC90: it is an inhibitory concentration at the 90% level, which refers to growth in some studies and to a panel of isolates in others. Read a low MIC90 as greater potency.

In brackets after ≈: the same amount, converted by molar mass.

The results in this text go back to US20060030609A1, “Oxazolidinones containing oxindoles as antibacterial agents” (priority 2004, published 2006).

Holding throughout (assay): in vitro antibacterial activity (MIC, NCCLS dilution)
Holding throughout (assay type): cell-based

For one assay, the system named is E.faecalis MGH-2 EF 1-1. Conditions: Enterococcus faecalis, MGH2EF11. The text has this:
(§1) The in vitro antibacterial activity of the compounds of the present invention may be assessed by following procedures recommended in (1) National Committee for Clinical Laboratory Standards (January 2003), Methods for dilution antimicrobial tests for bacteria that grow aerobically, Approved Standard (6th ed), M7-A6, NCCLS, Wayne, Pa.; (2) National Committee for Clinical Laboratory Standards (March 2001), Method for antimicrobial susceptibility testing of anaerobic bacteria, Approved Standard (5th ed), M11-A4, NCCLS, Wayne, Pa.; (3) National Committee for Clinical Laboratory Standards (January 2003), MIC testing supplemental tables, M100-S13 (for use with M7-A6), NCCLS, Wayne, Pa.; and (4) Murray P R, Baron E J, Jorgensen J H, et al. Manual of Clinical Microbiology (8th ed) Washington, D.C.: American Society for Microbiology Press, 2003. The MJC value is the lowest concentration of drug which prevented macroscopically visible growth under the conditions of the test.

In another assay the test system is S. pneumoniae SV1 SP-3. Conditions: Streptococcus pneumoniae, SV1SP3.
Text: as §1

For a further assay, the system named is S. aureus UC-76 SA-1. Conditions: Staphylococcus aureus, UC76.
Text: as §1

With `CN1C(=O)Cc2cc(N3C[C@H](C(N)=O)OC3=O)ccc21` [Example 1, (5R)-3-(1-methyl-2-oxo-2,3-dihydro-1H-indol-5-yl)-2-oxo-oxazolidine-5-carboxylic acid amide], the MIC90 in the assay with E.faecalis MGH-2 EF 1-1 came to 4 µg/mL (≈ 14.5 µM); in the assay with S. pneumoniae SV1 SP-3 it was 2 µg/mL (≈ 7.27 µM); in the assay on S. aureus UC-76 SA-1, 2 µg/mL (≈ 7.27 µM).
Take `CNC(=O)[C@H]1CN(c2ccc3c(c2)CC(=O)N3C)C(=O)O1` [Example 2]: the MIC90 with E.faecalis MGH-2 EF 1-1 turned out to be 4 µg/mL (≈ 13.8 µM); in the assay on S. pneumoniae SV1 SP-3, 2 µg/mL (≈ 6.91 µM); against S. aureus UC-76 SA-1, 2 µg/mL (≈ 6.91 µM).
On to `CN1C(=O)Cc2cc(N3C[C@H](C(N)=O)OC3=O)cc(F)c21` [Example 3, (5R)-3-(7-fluoro-1-methyl-2-oxo-2,3-dihydro-1H-indol-5-yl)-2-oxo-oxazolidine-5-carboxylic acid amide], for which the MIC90 with E.faecalis MGH-2 EF 1-1, against S. pneumoniae SV1 SP-3 and against S. aureus UC-76 SA-1 was 16 µg/mL (≈ 54.6 µM) each time.
Consider `CCN1C(=O)Cc2cc(N3C[C@H](C(N)=O)OC3=O)ccc21` [Example 4, (5R)-3-(1-ethyl-2-oxo-2,3-dihydro-1H-indol-5-yl)-2-oxo-oxazolidine-5-carboxylic acid amide], for which the results for the MIC90 against E.faecalis MGH-2 EF 1-1, against S. pneumoniae SV1 SP-3 and with S. aureus UC-76 SA-1 were 4 µg/mL (≈ 13.8 µM), 2 µg/mL (≈ 6.91 µM) and 4 µg/mL (≈ 13.8 µM), respectively.
In the case of `CCN1C(=O)Cc2cc(N3C[C@H](C(=O)NC)OC3=O)ccc21` [Example 5], the MIC90 with E.faecalis MGH-2 EF 1-1, with S. pneumoniae SV1 SP-3 and in the assay with S. aureus UC-76 SA-1 was 4 µg/mL (≈ 13.2 µM) each time.
With `NC(=O)[C@H]1CN(c2ccc3c(c2)CC(=O)N3CCF)C(=O)O1` [Example 6], the MIC90 in the assay with E.faecalis MGH-2 EF 1-1, with S. pneumoniae SV1 SP-3 and with S. aureus UC-76 SA-1 was 4 µg/mL (≈ 13 µM) in each case.
Take `CNC(=O)[C@H]1CN(c2ccc3c(c2)CC(=O)N3CCF)C(=O)O1` [Example 7]: the MIC90 against E.faecalis MGH-2 EF 1-1, in the assay on S. pneumoniae SV1 SP-3 and against S. aureus UC-76 SA-1 was 4 µg/mL (≈ 12.4 µM) each time.
Turning to `CC(C)N1C(=O)Cc2cc(N3C[C@H](C(N)=O)OC3=O)ccc21` [Example 8], the MIC90 in the assay on E.faecalis MGH-2 EF 1-1, against S. pneumoniae SV1 SP-3 and in the assay with S. aureus UC-76 SA-1 was 4 µg/mL (≈ 13.2 µM) each time.
`CNC(=O)[C@H]1CN(c2ccc3c(c2)CC(=O)N3C(C)C)C(=O)O1` [Example 9, (5R)-3-(1-isopropyl-2-oxo-2,3-dihydro-1H-indol-5-yl)-2-oxo-oxazolidine-5-carboxylic acid methylamide]: the MIC90 against E.faecalis MGH-2 EF 1-1 came out at 8 µg/mL (≈ 25.2 µM); against S. pneumoniae SV1 SP-3, 4 µg/mL (≈ 12.6 µM); against S. aureus UC-76 SA-1 it was 8 µg/mL (≈ 25.2 µM).
Turning to `CC(C)N1C(=O)Cc2cc(N3C[C@H](C(N)=O)OC3=O)cc(F)c21` [Example 10, (5R)-3-(7-fluoro-1-isopropyl-2-oxo-2,3-dihydro-1H-indol-5-yl)-2-oxo-oxazolidine-5-carboxylic acid amide], the MIC90 in the assay on E.faecalis MGH-2 EF 1-1, in the assay on S. pneumoniae SV1 SP-3 and against S. aureus UC-76 SA-1 was 4 µg/mL (≈ 12.4 µM) each time.
Take `NC(=O)[C@H]1CN(c2ccc3c(c2)CC(=O)N3C2CC2)C(=O)O1` [Example 11, (5R)-3-(1-cyclopropyl-2-oxo-2,3-dihydro-1H-indol-5-yl)-2-oxo-oxazolidine-5-carboxylic acid amide]: the MIC90 came out at 16 µg/mL (≈ 53.1 µM) in the assay with E.faecalis MGH-2 EF 1-1, 8 µg/mL (≈ 26.6 µM) in the assay with S. pneumoniae SV1 SP-3 and 8 µg/mL (≈ 26.6 µM) with S. aureus UC-76 SA-1.
As for `CNC(=O)[C@H]1CN(c2ccc3c(c2)CC(=O)N3C2CC2)C(=O)O1` [Example 12, (5R)-3-(1-cyclopropyl-2-oxo-2,3-dihydro-1H-indol-5-yl)-2-oxo-oxazolidine-5-carboxylic acid methylamide], the MIC90 came out at 16 µg/mL (≈ 50.7 µM) in the assay on E.faecalis MGH-2 EF 1-1, 8 µg/mL (≈ 25.4 µM) with S. pneumoniae SV1 SP-3 and 8 µg/mL (≈ 25.4 µM) against S. aureus UC-76 SA-1.
In the case of `CCCN1C(=O)Cc2cc(N3C[C@H](C(N)=O)OC3=O)ccc21` [Example 13, (R)-2-oxo-3-(2-oxo-1-propyl-2,3-dihydro-1H-indol-5-yl)-oxazolidine-5-carboxylic acid amide], the MIC90 against E.faecalis MGH-2 EF 1-1 worked out at 8 µg/mL (≈ 26.4 µM); against S. pneumoniae SV1 SP-3, 8 µg/mL (≈ 26.4 µM); against S. aureus UC-76 SA-1, 4 µg/mL (≈ 13.2 µM).
`CCCN1C(=O)Cc2cc(N3C[C@H](C(=O)NC)OC3=O)ccc21` [Example 14, (R)-2-oxo-3-(2-oxo-1-propyl-2,3-dihydro-1H-indol-5-yl)-oxazolidine-5-carboxylic acid methylamide]: the MIC90 in the assay on E.faecalis MGH-2 EF 1-1, against S. pneumoniae SV1 SP-3 and against S. aureus UC-76 SA-1 was 4 µg/mL (≈ 12.6 µM) in each case.
Regarding `CCCN1C(=O)Cc2cc(N3C[C@H](C(N)=O)OC3=O)cc(F)c21` [Example 15, (R)-3-(7-fluoro-2-oxo-1-propyl-2,3-dihydro-1H-indol-5-yl)-2-oxo-oxazolidine-5-carboxylic acid amide], the MIC90 amounted to 8 µg/mL (≈ 24.9 µM) in the assay on E.faecalis MGH-2 EF 1-1, 8 µg/mL (≈ 24.9 µM) in the assay on S. pneumoniae SV1 SP-3 and 4 µg/mL (≈ 12.4 µM) against S. aureus UC-76 SA-1.
As for `CC(C)(C)N1C(=O)Cc2cc(N3C[C@H](C(N)=O)OC3=O)ccc21` [Example 16], the MIC90 was 16 µg/mL (≈ 50.4 µM) against E.faecalis MGH-2 EF 1-1, 16 µg/mL (≈ 50.4 µM) with S. pneumoniae SV1 SP-3 and 8 µg/mL (≈ 25.2 µM) with S. aureus UC-76 SA-1.
Turning to `CCC(C)N1C(=O)Cc2cc(N3C[C@H](C(N)=O)OC3=O)ccc21` (stereo partly drawn) [Example 17, (R)-3-(1-sec-butyl-2-oxo-2,3-dihydro-1H-indol-5-yl)-2-oxo-oxazolidine-5-carboxylic acid amide], the MIC90 against E.faecalis MGH-2 EF 1-1 turned out to be 8 µg/mL (≈ 25.2 µM); with S. pneumoniae SV1 SP-3 it was 8 µg/mL (≈ 25.2 µM); against S. aureus UC-76 SA-1 it was 4 µg/mL (≈ 12.6 µM).
With `CCC(C)N1C(=O)Cc2cc(N3C[C@H](C(=O)NC)OC3=O)ccc21` (stereo partly drawn) [Example 18, (R)-3-(1-sec-butyl-2-oxo-2,3-dihydro-1H-indol-5-yl)-2-oxo-oxazolidine-5-carboxylic acid methylamide], the MIC90 against E.faecalis MGH-2 EF 1-1, against S. pneumoniae SV1 SP-3 and against S. aureus UC-76 SA-1 was 8 µg/mL (≈ 24.1 µM) in each case.
Regarding `CC(CF)N1C(=O)Cc2cc(N3C[C@H](C(N)=O)OC3=O)ccc21` (stereo partly drawn) [Example 19, (R)-3-[1-(2-fluoro-1-methyl-ethyl)-2-oxo-2,3-dihydro-1H-indol-5-yl]-2-oxo-oxazolidine-5-carboxylic acid amide], the MIC90 with E.faecalis MGH-2 EF 1-1, against S. pneumoniae SV1 SP-3 and with S. aureus UC-76 SA-1 was 4 µg/mL (≈ 12.4 µM) each time.
With `CC(C)CN1C(=O)Cc2cc(N3C[C@H](C(N)=O)OC3=O)ccc21` [Example 20, (R)-3-(1-Isobutyl-2-oxo-2,3-dihydro-1H-indol-5-yl)-2-oxo-oxazolidine-5-carboxylic acid amide], the MIC90 with E.faecalis MGH-2 EF 1-1, against S. pneumoniae SV1 SP-3 and against S. aureus UC-76 SA-1 was 64 µg/mL (≈ 202 µM) in each case.
As to `CNC(=O)[C@H]1CN(c2ccc3c(c2)CC(=O)N3CC(C)C)C(=O)O1` [Example 21, (R)-3-(1-isobutyl-2-oxo-2,3-dihydro-1H-indol-5-yl)-2-oxo-oxazolidine-5-carboxylic acid methylamide], the MIC90 against E.faecalis MGH-2 EF 1-1, with S. pneumoniae SV1 SP-3 and in the assay on S. aureus UC-76 SA-1 was 64 µg/mL (≈ 193 µM) in each case.
For `NC(=O)[C@H]1CN(c2ccc3c(c2)CC(=O)N3C2CCC2)C(=O)O1` [Example 22, (R)-3-(1-cyclobutyl-2-oxo-2,3-dihydro-1H-indol-5-yl)-2-oxo-oxazolidine-5-carboxylic acid amide], the MIC90 against E.faecalis MGH-2 EF 1-1 was found to be 64 µg/mL (≈ 203 µM); against S. pneumoniae SV1 SP-3, 64 µg/mL (≈ 203 µM); in the assay with S. aureus UC-76 SA-1, 32 µg/mL (≈ 101 µM).
In the case of `CNC(=O)[C@H]1CN(c2ccc3c(c2)CC(=O)N3C2CCC2)C(=O)O1` [Example 23, (R)-3-(1-cyclobutyl-2-oxo-2,3-dihydro-1H-indol-5-yl)-2-oxo-oxazolidine-5-carboxylic acid methylamide], the MIC90 against E.faecalis MGH-2 EF 1-1 was 64 µg/mL (≈ 194 µM); against S. pneumoniae SV1 SP-3 it was 32 µg/mL (≈ 97.2 µM); against S. aureus UC-76 SA-1, 16 µg/mL (≈ 48.6 µM).
